Reference: patent US8178555B2, “Apoptosis signal-regulating kinase 1 inhibitors” (Takeda Pharmaceutical Company Limited, priority 2009, dated 2012)

Target: T1, ASK1 (Homo sapiens, UniProt Q99683)
T1 construct: a 2.2 kb DNA fragment containing an ASK1 gene was recovered from the gel; FLAG (N); made in house; host or cells: Sf-21 insect cells (recombinant baculovirus, pFASTBAC1)
T1 sequence (Q99683 649-1374 limits assumed): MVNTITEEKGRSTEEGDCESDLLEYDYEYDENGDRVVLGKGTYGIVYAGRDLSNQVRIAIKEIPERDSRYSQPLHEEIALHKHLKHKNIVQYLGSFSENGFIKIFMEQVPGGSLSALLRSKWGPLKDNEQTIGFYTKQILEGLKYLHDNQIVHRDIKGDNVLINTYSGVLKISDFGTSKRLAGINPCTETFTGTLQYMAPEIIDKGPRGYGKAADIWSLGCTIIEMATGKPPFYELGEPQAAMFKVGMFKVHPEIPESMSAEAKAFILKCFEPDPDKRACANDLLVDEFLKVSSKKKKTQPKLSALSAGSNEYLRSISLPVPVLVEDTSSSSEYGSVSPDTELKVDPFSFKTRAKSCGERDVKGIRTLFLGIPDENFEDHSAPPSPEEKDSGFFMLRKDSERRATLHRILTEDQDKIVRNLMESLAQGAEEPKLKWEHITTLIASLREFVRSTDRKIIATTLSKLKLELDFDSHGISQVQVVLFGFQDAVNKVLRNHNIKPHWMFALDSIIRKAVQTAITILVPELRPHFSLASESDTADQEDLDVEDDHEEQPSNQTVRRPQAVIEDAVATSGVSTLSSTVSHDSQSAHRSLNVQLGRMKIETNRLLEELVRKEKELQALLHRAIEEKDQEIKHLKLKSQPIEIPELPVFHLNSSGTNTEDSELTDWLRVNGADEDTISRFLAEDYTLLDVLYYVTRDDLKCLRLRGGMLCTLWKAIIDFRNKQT
Assay: Scintillation assay for measuring the inhibitory effect against ASK1 (myelin basic protein substrate, [γ-32P]ATP)
Assay type: biochemical
Conditions: Table 1, assay of Example A and B, read-out: Enzyme Activity IC50
Text: The inhibitory effect of the compound of the invention on ASK1 may be evaluated by evaluating the phosphorylating activity of the enzyme on a known substrate with or without the presence of the test compound. Example B provides such an assay where myelin basic protein (Wako) is used as substrate and detection is by scintillation counting. It should be understood other substrates and detection mechanism may be used. A commercially available a kit, Cisbio's HTRF® KinEASE™ STK kit, has shown to be useful for evaluating ASK1 activity. The assay uses an anti-phosphoseric specific, Eu3+-Cryptate labeled antibody to mark the phosphorylated product of ASK1 on a biotinylated kinase substrate, and detection is by time resolved fluorescence using XL665 labeled streptavidin. The fluorescence intensity is proportional to the amount of product formation. Example C provides the assay protocol.
Cloning of cDNA encoding human ASK1 was conducted by PCR using primers, 5′-[…] […]-3 (SEQ ID NO: 1) and 5′-AAAGCGGCCGCTCAA […]-3′ (SEQ ID NO: 2), from human heart cDNA library (Becton, Dickinson and Company). The PCR product was subjected to agarose gel (1%) electrophoresis, a 2.2 kb DNA fragment containing an ASK1 gene was recovered from the gel, and then digested with restriction enzymes, NotI and SalI, and inserted into a plasmid pFASTBAC1 (Invitrogen) to prepare a plasmid pFB-ASK1. The insert was verified by sequencing. Recombinant baculovirus was prepared according to the procedure of the Bac-to-Bac baculovirus expression system (Invitrogen).
Sf-21 cells were seeded to achieve 1×10^6 cells/mL in 100 mL of Sf-900 II SFM medium (Invitrogen) which contains 10% fetal calf serum and then cultured at 27° C. for 24 hrs. To express ASK1 in cells, 0.15 mL of the recombinant baculovirus virus stock was added to cells, and the then cultured for 60 hrs. The cells were separated from the culture solution by centrifugation at 3000 rpm for 10 min and washed once with PBS. The cells were suspended in 10 mL of lysis buffer (25 mM HEPES (pH 7.5), 1% Triton X, 130 mM NaCl, 1 mM EDTA, 1 mM DTT, 25 mM β-glycerophosphate, Protease inhibitor complete (Roche), 1 mM sodium orthovanadate) and ruptured by four times of treatment with a homogenizer (POLYTRON) at 20000 rpm for 30 seconds. Active ASK1 protein was purified from a supernatant obtained by centrifugal separation at 40000 rpm for 45 min using anti-FLAG M2 Affinity Gel (Sigma).
The test compounds (2.5 μL) dissolved in DMSO were added to wells containing 37.5 μl of the reaction solution (25 mM HEPES (pH 7.5), 10 mM magnesium acetate, 1 mM DTT) including 30 ng of active ASK1 protein and 1 μg of myelin basic protein (Wako), and incubated at room temperature for 5 min. To start the reaction, 10 μL of ATP solution (2.5 μM ATP, 0.1 μCi [γ-^32P]ATP) was added to wells. After incubating at room temperature for 30 min, the reaction was terminated by adding 50 μl of 20% TCA solution. The reaction solution was incubated at 4° C. for 30 min and an acid-insoluble fraction was transferred onto a GF/C filter (Packard) with Cell Harvester (Packard), and washed with 250 mM phosphoric acid. After drying at 45° C. for 60 min., 40 μL of Microscint 0 (Packard) was added and the radioactivity was measured with TopCount (Packard). The concentrations (IC50 value) of the test compounds necessary for 50% inhibition of kinase activity were calculated by PRISM 3.0 (Graphpad Software).
The enzyme activities of the compounds of the present invention against ASK1 were determined using the assay disclosed in Example A and B. The resulted IC50 values are reported in Table 1.

SMILES | IC50
CC(C)(C)c1ccc(C(=O)Nc2nc3ccc(-n4ccnc4)nc3s2)cc1 [Compound 11, N-(5-(1H-imidazol-1-yl)thiazolo[5,4-b]pyridin-2-yl)-4-tert-butylbenzamide] | 100 to 1000 nM
CC(C)(O)c1ccc(C(=O)Nc2nc3ccc(-c4cn[nH]c4)nc3s2)cc1 [Compound 12, N-(5-(1H-pyrazol-4-yl)thiazolo[5,4-b]pyridin-2-yl)-4-(2-hydroxypropan-2-yl)benzamide] | < 100 nM
Cc1cnccc1-c1ccc2nc(NC(=O)c3ccc(C(C)(C)CO)cc3)sc2n1 [Compound 26, 4-(1-hydroxy-2-methylpropan-2-yl)-N-(5-(3-methylpyridin-4-yl)thiazolo[5,4-b]pyridin-2-yl)benzamide] | 100 to 1000 nM
CC(C)(O)c1ccc(C(=O)Nc2nc3ccc(N4CCCCC4)nc3s2)cc1 [Compound 38, 4-(2-hydroxypropan-2-yl)-N-(5-(piperidin-1-yl)thiazolo[5,4-b]pyridin-2-yl)benzamide] | > 1000 nM
CC(C)(CO)c1ccc(C(=O)Nc2nc3ccc(-c4ccncc4)nc3s2)cc1 [Compound 34, 4-(1-hydroxy-2-methylpropan-2-yl)-N-(5-(pyridin-4-yl)thiazolo[5,4-b]pyridin-2-yl)benzamide] | 100 to 1000 nM
O=C(Nc1nc2ccc(-c3cn[nH]c3)nc2s1)c1ccc(C2CC2)cc1 [Compound 5, N-(5-(1H-pyrazol-4-yl)thiazolo[5,4-b]pyridin-2-yl)-4-cyclopropylbenzamide] | > 1000 nM
CC(C)(CO)c1ccc(C(=O)Nc2nc3ccc(-c4ccc(O)nc4)nc3s2)cc1 [Compound 33, 4-(1-hydroxy-2-methylpropan-2-yl)-N-(5-(6-hydroxypyridin-3-yl)thiazolo[5,4-b]pyridin-2-yl)benzamide] | < 100 nM
CC(C)(C)c1ccc(C(=O)Nc2nc3ccc(-c4cn[nH]c4)nc3s2)cc1 [Compound 9, N-(5-(1H-pyrazol-4-yl)thiazolo[5,4-b]pyridin-2-yl)-4-tert-butylbenzamide] | < 100 nM
CC(C)(O)c1ccc(C(=O)Nc2nc3ccc(-c4ccc(O)nc4)nc3s2)cc1 [Compound 35, 4-(2-hydroxypropan-2-yl)-N-(5-(6-hydroxypyridin-3-yl)thiazolo[5,4-b]pyridin-2-yl)benzamide] | < 100 nM
Cc1n[nH]c(C)c1-c1ccc2nc(NC(=O)c3ccc(C(C)(C)O)cc3)sc2n1 [Compound 14, N-(5-(3,5-dimethyl-1H-pyrazol-4-yl)thiazolo[5,4-b]pyridin-2-yl)-4-(2-hydroxypropan-2-yl)benzamide] | 100 to 1000 nM
CC(C)(CO)c1ccc(C(=O)Nc2nc3ccc(-c4cn[nH]c4)nc3s2)cc1 [Compound 13, N-(5-(1H-pyrazol-4-yl)thiazolo[5,4-b]pyridin-2-yl)-4-(1-hydroxy-2-methylpropan-2-yl)benzamide] | < 100 nM
CCc1nccn1-c1ccc2nc(NC(=O)c3ccc(C(C)(C)O)cc3)sc2n1 [Compound 22, N-(5-(2-ethyl-1H-imidazol-1-yl)thiazolo[5,4-b]pyridin-2-yl)-4-(2-hydroxypropan-2-yl)benzamide] | > 1000 nM
CC(C)(O)c1ccc(C(=O)Nc2nc3ccc(N4CC[C@@H](O)C4)nc3s2)cc1 [Compound 36, (R)-4-(2-hydroxypropan-2-yl)-N-(5-(3-hydroxypyrrolidin-1-yl)thiazolo[5,4-b]pyridin-2-yl)benzamide] | > 1000 nM
Cn1cc(-c2ccc3nc(NC(=O)c4ccc(C(C)(C)O)cc4)sc3n2)cn1 [Compound 19, 4-(2-hydroxypropan-2-yl)-N-(5-(1-methyl-1H-pyrazol-4-yl)thiazolo[5,4-b]pyridin-2-yl)benzamide] | 100 to 1000 nM
CC(C)(O)c1ccc(C(=O)Nc2nc3ccc(-c4ccncc4)nc3s2)cc1 [Compound 30, 4-(2-hydroxypropan-2-yl)-N-(5-(pyridin-4-yl)thiazolo[5,4-b]pyridin-2-yl)benzamide] | 100 to 1000 nM
Cc1n[nH]cc1-c1ccc2nc(NC(=O)c3ccc(C(C)(C)O)cc3)sc2n1 [Compound 15, 4-(2-hydroxypropan-2-yl)-N-(5-(3-methyl-1H-pyrazol-4-yl)thiazolo[5,4-b]pyridin-2-yl)benzamide] | < 100 nM
COC(=O)c1ccc(C(=O)Nc2nc3ccc(-c4c[nH]nc4C)nc3s2)cc1 [Compound 20, methyl 4-(5-(3-methyl-1H-pyrazol-4-yl)thiazolo[5,4-b]pyridin-2-ylcarbamoyl)benzoate] | > 1000 nM
CC(C)(C)c1ccc(C(=O)Nc2nc3ccc(-c4ccncc4)nc3s2)cc1 [Compound 10, 4-tert-butyl-N-(5-(pyridin-4-yl)thiazolo[5,4-b]pyridin-2-yl)benzamide] | 100 to 1000 nM
CC(C)(O)c1ccc(C(=O)Nc2nc3ccc(N4CCCC4)nc3s2)cc1 [Compound 8, 4-(2-hydroxypropan-2-yl)-N-(5-(pyrrolidin-1-yl)thiazolo[5,4-b]pyridin-2-yl)benzamide] | > 1000 nM
CC(C)(O)c1ccc(C(=O)Nc2nc3ccc(-n4ccnc4)nc3s2)cc1 [Compound 7, N-(5-(1H-imidazol-1-yl)thiazolo[5,4-b]pyridin-2-yl)-4-(2-hydroxypropan-2-yl)benzamide] | 100 to 1000 nM
Cc1n[nH]cc1-c1ccc2nc(NC(=O)c3ccc(C(C)(C)CO)cc3)sc2n1 [Compound 21, 4-(1-hydroxy-2-methylpropan-2-yl)-N-(5-(3-methyl-1H-pyrazol-4-yl)thiazolo[5,4-b]pyridin-2-yl)benzamide] | < 100 nM

Same assay, conditions: assay described in Example B, read-out: IC50 value

SMILES | IC50
CC(C)(O)c1ccc(C(=O)Nc2nc3ccc(-c4ccncc4)nc3s2)cc1 [Compound 30, 4-(2-hydroxypropan-2-yl)-N-(5-(pyridin-4-yl)thiazolo[5,4-b]pyridin-2-yl)benzamide] | 310 nM
